According to US12391640B2, “Process of making a crystalline EDG-2 receptor antagonist” (HORIZON THERAPEUTICS IRELAND DAC, priority 2022, dated 2025):
Each block holds one compound with its values, some of them ahead of it.

Experiments:
LPA1 receptor [1] = molecular target: T1, LPA1 receptor (Homo sapiens, UniProt Q92633); conditions: patients with dcSSc; cited from earlier work
T1 construct: host or cells: patients (endogenous receptor), clinical study cited from Allanore et al. 2018

LPA1 receptor [2] = molecular target: T2, LPA1 receptor (Mus musculus, UniProt P61793); conditions: mouse model of skin fibrosis; cited from earlier work
T2 construct: from tissue; host or cells: living mouse (skin), endogenous receptor

[3] = Solubility of Compound I in solvents at neutral/acidic pH; type: physicochemical
[4] = Physical stability of solid state forms at 80° C./75% RH, examined by FTIR; type: physicochemical; conditions: 1 week, open glass vials
Procedure: The physical stability of Forms 1, 2, and 3 was investigated at 80° C./75% RH in order to determine if interconversion was observed. The samples were examined by FTIR after stressing 1 week in open glass vials.

[5] = Form conversion when slurried in solvent, determined by FTIR; type: physicochemical; conditions: slurried in MEK or 1-pentanol at 60° C. or 70° C.
[6] = Solubility of the polymorphs at pH 7.4 in phosphate buffer; type: physicochemical; conditions: pH 7.4 phosphate buffer, 25° C.
Procedure: The solubility of the different polymorphs was determined at pH 7.4 in phosphate buffer at 25° C. Samples were analyzed as a function of time for each form to determine the equilibrium values. The residual solids from each sample were analyzed to verify that the form was unchanged during the experiment. The concentration (mg/mL) versus time data is listed below for each form: […]

T1 sequence (Q92633 whole entry): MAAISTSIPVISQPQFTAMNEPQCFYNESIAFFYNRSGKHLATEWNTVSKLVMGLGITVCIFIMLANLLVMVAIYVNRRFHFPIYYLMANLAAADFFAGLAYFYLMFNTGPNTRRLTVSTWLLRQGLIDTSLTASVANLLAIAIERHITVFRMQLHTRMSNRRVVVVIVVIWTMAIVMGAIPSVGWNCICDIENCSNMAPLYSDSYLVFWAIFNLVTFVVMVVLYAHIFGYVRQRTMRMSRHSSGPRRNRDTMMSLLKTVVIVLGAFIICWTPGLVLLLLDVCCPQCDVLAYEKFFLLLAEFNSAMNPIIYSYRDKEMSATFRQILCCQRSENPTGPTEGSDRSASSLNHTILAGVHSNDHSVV
T2 sequence (P61793 whole entry): as the sequence (Q92633 whole entry) above, with I4A, I8S, P22Q, H40Y, I61V, E193D, N194H, I269V, S331N, T335N counted along it

solubility in most solvents [3]: highly insoluble
SMILES: COc1ccc(C(=O)NC2(C(=O)O)Cc3ccccc3C2)cc1OCCc1cccc(C)c1 [Compound I, 2-(4-methoxy-3-(3-methylphenethoxy)benzamido)-2,3-dihydro-1H-indene-2-carboxylic acid]
outcome measures (LPA1 receptor [1]): improved outcome measures
target engagement (LPA1 receptor [1]): demonstrated target engagement
tolerability (LPA1 receptor [1]): well tolerated
collagen content (LPA1 receptor [2]): reduced collagen content
dermal thickening (LPA1 receptor [2]): reversed dermal thickening
myofibroblast differentiation (LPA1 receptor [2]): significantly inhibited myofibroblast differentiation

24 hour solubility result greater than Form 1 ([6]; 24 hour): more than 30%
SMILES: COc1ccc(C(=O)NC2(C(=O)O)Cc3ccccc3C2)cc1OCCc1cccc(C)c1 [Form 2, 2-(4-methoxy-3-(3-methylphenethoxy)benzamido)-2,3-dihydro-1H-indene-2-carboxylic acid]

equilibrium solubility at 24 hours relative to Form 1 [6]: more than double
SMILES: COc1ccc(C(=O)NC2(C(=O)O)Cc3ccccc3C2)cc1OCCc1cccc(C)c1 [Form 3, 2-(4-methoxy-3-(3-methylphenethoxy)benzamido)-2,3-dihydro-1H-indene-2-carboxylic acid]

The remaining lines, values behind:

SMILES: COc1ccc(C(=O)NC2(C(=O)O)Cc3ccccc3C2)cc1OCCc1cccc(C)c1 [Form 1, 2-(4-methoxy-3-(3-methylphenethoxy)benzamido)-2,3-dihydro-1H-indene-2-carboxylic acid]
changes in FTIR spectrum after stressing (physical stability) [4]: unchanged FTIR
form conversion in slurry [5]: converts to crystalline Form 2

SMILES: COc1ccc(C(=O)NC2(C(=O)O)Cc3ccccc3C2)cc1OCCc1cccc(C)c1 [Form 4, 2-(4-methoxy-3-(3-methylphenethoxy)benzamido)-2,3-dihydro-1H-indene-2-carboxylic acid]
equilibrium solubility at 24 hours relative to Form 1 [6]: more than double
